For assay [1], the system named is central benzodiazepine receptors. Kind of assay: Central benzodiazepine receptor binding (test of Speth et al.). Particulars: 1000 nM of the compound. In outline:
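Radioligand binding by the Speth et al. method. Specific binding is total minus nonspecific binding, the latter measured with excess unlabelled ligand. Compounds screened at 1.0E-09, 1.0E-07 and 1.0E-05 M in single determination; values given as percent inhibition at 1000 nM compound.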

The target in assay [2] is T1, α1 subtype containing GABA-A receptors (Homo sapiens, UniProt P14867+P18507).
T1 construct: expressed in transfected cells; host or cells: Xenopus laevis oocytes, cRNA injected
T1 sequence (P14867 28-456): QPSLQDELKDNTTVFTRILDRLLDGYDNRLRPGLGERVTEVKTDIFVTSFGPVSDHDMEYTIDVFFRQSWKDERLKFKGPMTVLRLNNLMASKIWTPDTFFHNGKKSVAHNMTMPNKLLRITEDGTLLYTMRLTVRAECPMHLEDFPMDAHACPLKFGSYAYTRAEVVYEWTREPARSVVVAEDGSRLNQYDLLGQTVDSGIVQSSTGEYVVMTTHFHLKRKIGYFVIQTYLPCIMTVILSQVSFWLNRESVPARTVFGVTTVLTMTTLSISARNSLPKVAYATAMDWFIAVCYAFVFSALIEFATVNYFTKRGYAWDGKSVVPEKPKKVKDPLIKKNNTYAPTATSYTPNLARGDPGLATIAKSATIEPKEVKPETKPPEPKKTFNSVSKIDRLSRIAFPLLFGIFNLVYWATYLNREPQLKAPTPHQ
T1 sequence (P28472 26-473 partner): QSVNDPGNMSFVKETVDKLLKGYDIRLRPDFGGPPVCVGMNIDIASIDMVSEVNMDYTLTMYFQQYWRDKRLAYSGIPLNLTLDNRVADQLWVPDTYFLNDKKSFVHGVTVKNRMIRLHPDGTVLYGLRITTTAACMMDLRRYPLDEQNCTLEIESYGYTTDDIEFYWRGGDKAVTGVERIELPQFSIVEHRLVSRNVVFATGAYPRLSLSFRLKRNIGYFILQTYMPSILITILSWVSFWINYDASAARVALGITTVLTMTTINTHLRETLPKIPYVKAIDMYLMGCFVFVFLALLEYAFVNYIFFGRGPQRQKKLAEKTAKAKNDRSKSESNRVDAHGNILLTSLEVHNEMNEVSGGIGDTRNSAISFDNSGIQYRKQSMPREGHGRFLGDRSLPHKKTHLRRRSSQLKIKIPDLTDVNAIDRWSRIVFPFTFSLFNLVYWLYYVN
T1 sequence (P18507 40-475): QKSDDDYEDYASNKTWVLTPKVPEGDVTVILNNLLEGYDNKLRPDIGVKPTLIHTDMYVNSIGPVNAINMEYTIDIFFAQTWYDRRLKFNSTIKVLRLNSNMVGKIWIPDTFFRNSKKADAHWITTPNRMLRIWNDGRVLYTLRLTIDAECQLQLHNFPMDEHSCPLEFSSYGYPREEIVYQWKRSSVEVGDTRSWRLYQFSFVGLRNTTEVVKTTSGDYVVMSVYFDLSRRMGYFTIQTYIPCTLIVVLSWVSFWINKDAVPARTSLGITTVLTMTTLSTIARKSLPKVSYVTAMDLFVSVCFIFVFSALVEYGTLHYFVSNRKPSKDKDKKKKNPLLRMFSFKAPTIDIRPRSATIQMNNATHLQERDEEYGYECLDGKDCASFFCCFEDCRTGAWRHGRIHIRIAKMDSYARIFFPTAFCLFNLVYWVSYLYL
Kind of assay: Two-electrode voltage clamp electrophysiology in Xenopus oocytes, potentiation of GABA EC20 response, α1. It is filed as cell-based. Particulars: 100 nM compound; for activation at 0.1 µM: read-out: Percentage of potentiation alpha1. In outline:
(§1)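 Compounds are tested at 100 nM, one per oocyte, against an EC20 GABA (60 μM) response in human α1-, α2-, α3- or α5-β3-γ2L receptors clamped at −80 mV. Oocytes showing rapid desensitization or weak chlordiazepoxide (1 μM) potentiation are excluded.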
(In two-electrode clamp one electrode senses voltage and the other passes current.)

Assay [3] has as its target T2, α2 subtype containing GABA-A receptors (Homo sapiens, UniProt P18507+P47869).
T2 construct: expressed in transfected cells; host or cells: Xenopus laevis oocytes, cRNA injected
The assay can be described thus: Two-electrode voltage clamp electrophysiology in Xenopus oocytes, potentiation of GABA EC20 response, α2. It is filed as cell-based. The settings on record: 100 nM compound; for activation at 0.1 µM: read-out: Percentage of potentiation alpha2. In outline: as §1

The source of these data is US8497278B2, “Imidazo[1,2-a]pyridine compounds” (priority 2008, dated 2013).

Bounds are passed on as bounds.

T2 sequence (P47869 29-451): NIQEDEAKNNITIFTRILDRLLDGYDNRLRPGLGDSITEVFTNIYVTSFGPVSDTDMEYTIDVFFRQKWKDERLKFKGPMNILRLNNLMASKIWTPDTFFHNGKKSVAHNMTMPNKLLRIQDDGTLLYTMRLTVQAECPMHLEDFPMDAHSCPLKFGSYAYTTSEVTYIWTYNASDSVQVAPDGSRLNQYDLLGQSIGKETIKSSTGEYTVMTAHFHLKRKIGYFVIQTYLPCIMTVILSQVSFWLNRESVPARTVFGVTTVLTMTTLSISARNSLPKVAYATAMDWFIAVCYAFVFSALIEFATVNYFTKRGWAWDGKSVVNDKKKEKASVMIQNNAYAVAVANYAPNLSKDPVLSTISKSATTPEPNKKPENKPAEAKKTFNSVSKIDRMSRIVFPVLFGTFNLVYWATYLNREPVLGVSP
T2 sequence (P28472 26-473 partner): as the sequence (P28472 26-473 partner) above
T2 sequence (P18507 40-475): as the sequence (P18507 40-475) above

Turning to `CNC(=O)c1ncnn1Cc1c(-c2ccc(Cl)cc2)nc2ccc(Cl)cn12` [Compound 81, 2-[6-Chloro-2-(4-chloro-phenyl)-imidazo[1,2-a]pyridin-3-ylmethyl]-2H-[1,2,4]triazole-3-carboxylic acid methylamide], the “% Inhibition at 1000 nM for CBZD” value in assay [1] was “++ (percentage of inhibition of central BZD site binding is greater than 80% in the presence of 1000 nM of the compound)”. In addition, the activation at 0.1 µM in assay [2] and in assay [3] was 10 to 50% in each case.

In the case of `CCOc1ccn(Cc2c(-c3ccc(Cl)cc3)nc3ccccn23)c(=O)n1` [Compound 137, 1-((2-(4-chlorophenyl)imidazo[1,2-a]pyridin-3-yl)methyl)-4-ethoxypyrimidin-2(1H)-one], in assay [1], the “% Inhibition at 1000 nM for CBZD” value is “++ (percentage of inhibition of central BZD site binding is greater than 80% in the presence of 1000 nM of the compound)”. The activation at 0.1 µM in assay [2] and in assay [3] was 10 to 50% in each case.

`Fc1ccc2nc(-c3ccc(Cl)cc3)c(Cn3nccn3)n2c1` [Compound 56, 3-((2H-1,2,3-triazol-2-yl)methyl)-2-(4-chlorophenyl)-6-fluoroH-imidazo[1,2-a]pyridine]: the “% Inhibition at 1000 nM for CBZD” value in assay [1] is recorded as “++ (percentage of inhibition of central BZD site binding is greater than 80% in the presence of 1000 nM of the compound)”. The “Percentage of potentiation alpha1” value in assay [2] was “+ (percentage of potentiation is greater than or equal to 10% but less than 50% in the presence of 100 nM of the compound)”. For the same compound, in assay [3], the “Percentage of potentiation alpha2” value was “++ (percentage of potentiation is greater than or equal to 50% in the presence of 100 nM of the compound)”.

Regarding `CN(CCO)c1cncc(Cc2c(-c3ccc(Cl)cc3)nc3ccccn23)n1` [Compound 192, 2-((6-((2-(4-chlorophenyl)imidazo[1,2-a]pyridin-3-yl)methyl)pyrazin-2-yl)(methyl)amino)ethanol], the “% Inhibition at 1000 nM for CBZD” value in assay [1] is “++ (percentage of inhibition of central BZD site binding is greater than 80% in the presence of 1000 nM of the compound)”. Also, the activation at 0.1 µM in assay [2] and in assay [3] was 10 to 50% in each case.

With `CN1CCN(C2=CC(=O)N(Cc3c(-c4ccc(Cl)cc4)nc4ccccn34)C2)CC1` [Compound 238, 1-((2-(4-chlorophenyl)imidazo[1,2-a]pyridin-3-yl)methyl)-4-(4-methylpiperazin-1-yl)-1H-pyrrol-2(5H)-one], the “% Inhibition at 1000 nM for CBZD” value in assay [1] is on record as “++ (percentage of inhibition of central BZD site binding is greater than 80% in the presence of 1000 nM of the compound)”. Moreover, the activation at 0.1 µM in assay [2] and in assay [3] was 10 to 50% throughout.

On to `O=c1[nH]c(=O)n(Cc2c(-c3ccc(Cl)cc3)nc3ccccn23)cc1F` [Compound 127, 1-((2-(4-chlorophenyl)imidazo[1,2-a]pyridin-3-yl)methyl)-5-fluoropyrimidine-2,4(1H,3H)-dione], for which the “% Inhibition at 1000 nM for CBZD” value in assay [1] was “+ (percentage of inhibition of central BZD site binding is greater than 50% but less than 80% in the presence of 1000 nM of the compound)”. For the same compound, the activation at 0.1 µM in assay [2] is -10 to 10%; in assay [3], 10 to 50%.

For `O=c1nc(N2CCCC2)ccn1Cc1c(-c2ccc(Cl)cc2)nc2ccccn12` [Compound 136, 1-((2-(4-chlorophenyl)imidazo[1,2-a]pyridin-3-yl)methyl)-4-(pyrrolidin-1-yl)pyrimidin-2(1H)-one], in assay [1], the “% Inhibition at 1000 nM for CBZD” value was “++ (percentage of inhibition of central BZD site binding is greater than 80% in the presence of 1000 nM of the compound)”. In addition, the activation at 0.1 µM in assay [2] was 10 to 50%; in assay [3] it was not below 50%.

As to `Cc1noc(-c2nccn2Cc2c(-c3ccc(Cl)cc3)nc3ccccn23)n1` [Compound 27, 2-(4-chlorophenyl)-3-((2-(3-methyl-1,2,4-oxadiazol-5-yl)-1H-imidazol-1-yl)methyl)H-imidazo[1,2-a]pyridine], in assay [1], the “% Inhibition at 1000 nM for CBZD” value is recorded as “++ (percentage of inhibition of central BZD site binding is greater than 80% in the presence of 1000 nM of the compound)”. Also, in assay [2], the “Percentage of potentiation alpha1” value is reported as “+ (percentage of potentiation is greater than or equal to 10% but less than 50% in the presence of 100 nM of the compound)”. Further, the “Percentage of potentiation alpha2” value in assay [3] is “+ (percentage of potentiation is greater than or equal to 10% but less than 50% in the presence of 100 nM of the compound)”.

On to `CNC(=O)c1nccn1Cc1c(-c2ccc(Cl)cc2)nc2cccnn12` [Compound 88, 1-((2-(4-chlorophenyl)imidazo[1,2-b]pyridazin-3-yl)methyl)-N-methyl-1H-imidazole-2-carboxamide], for which, in assay [1], the “% Inhibition at 1000 nM for CBZD” value was “++ (percentage of inhibition of central BZD site binding is greater than 80% in the presence of 1000 nM of the compound)”. Moreover, the activation at 0.1 µM is -10 to 10% in assay [2] and 10 to 50% in assay [3].

Consider `Fc1ccc(-c2nc3ccc(Cl)cn3c2CNc2nccc(CN3CCCC3)n2)cc1` [Compound 198, N-((6-chloro-2-(4-fluorophenyl)imidazo[1,2-a]pyridin-3-yl)methyl)-4-(pyrrolidin-1-ylmethyl)pyrimidin-2-amine], for which the “% Inhibition at 1000 nM for CBZD” value in assay [1] was “++ (percentage of inhibition of central BZD site binding is greater than 80% in the presence of 1000 nM of the compound)”. For the same compound, the activation at 0.1 µM in assay [2] and in assay [3] was not below 50% in each case.

In the case of `Cc1nn(C)nc1Cc1c(-c2ccc(Cl)cc2)nc2ccc(Cl)cn12` [Compound 229, 6-Chloro-2-(4-chlorophenyl)-3-((2,5-dimethyl-2H-1,2,3-triazol-4-yl)methyl)imidazo[1,2-a]pyridine], the “% Inhibition at 1000 nM for CBZD” value in assay [1] is on record as “++ (percentage of inhibition of central BZD site binding is greater than 80% in the presence of 1000 nM of the compound)”. The activation at 0.1 µM in assay [2] and in assay [3] was 10 to 50% each time.

Consider `COC(=O)c1ncnn1Cc1c(-c2ccccc2)nc2ccc(Cl)cn12` [Compound 44, 2-(6-Chloro-2-phenyl-imidazo[1,2-a]pyridin-3-ylmethyl)-2H-[1,2,4]triazole-3-carboxylic acid methyl ester], for which the “% Inhibition at 1000 nM for CBZD” value in assay [1] is “++ (percentage of inhibition of central BZD site binding is greater than 80% in the presence of 1000 nM of the compound)”. Moreover, the activation at 0.1 µM in assay [2] and in assay [3] was -10 to 10% each time.

As for `CN(C)CCNC1=CC(=O)N(Cc2c(-c3ccc(Cl)cc3)nc3ccccn23)C1` [Compound 237, 1-((2-(4-chlorophenyl)imidazo[1,2-a]pyridin-3-yl)methyl)-4-(2-(dimethylamino)ethylamino)-1H-pyrrol-2(5H)-one], in assay [1], the “% Inhibition at 1000 nM for CBZD” value is “++ (percentage of inhibition of central BZD site binding is greater than 80% in the presence of 1000 nM of the compound)”. Moreover, the activation at 0.1 µM in assay [2] was -10 to 10%; in assay [3] it was 10 to 50%.

With `Cc1ccc(-c2nc3ccc(C)cn3c2Cn2ccnn2)cc1` [Compound 6, 3-((1H-1,2,3-triazol-1-yl)methyl)-6-methyl-2-p-tolylH-imidazo[1,2-a]pyridine], the “% Inhibition at 1000 nM for CBZD” value in assay [1] is “++ (percentage of inhibition of central BZD site binding is greater than 80% in the presence of 1000 nM of the compound)”. Moreover, the “Percentage of potentiation alpha1” value in assay [2] is on record as “+ (percentage of potentiation is greater than or equal to 10% but less than 50% in the presence of 100 nM of the compound)”. Besides, in assay [3], the “Percentage of potentiation alpha2” value was “+ (percentage of potentiation is greater than or equal to 10% but less than 50% in the presence of 100 nM of the compound)”.
